Measurements reported in US20260240740A1, “MULTI-PHOTOPROTECTIVE COMPOUNDS AND USES THEREOF” (SKINOSIVE, priority 2022, published 2026).

Legend:
Format in all cases: physicochemical
[1] = Photostability after UV irradiation, absorbance spectra; details: for Absorbance peak, Without UV irradiation / Absorbance peak, Irradiation 2000 J/dm2 / Absorbance peak, Irradiation 4000 J/dm2: 1 mM; for Absorbance peak, Irradiation 2000 J/dm2: 1 h
Experimental: (§1) Compound #2 (OOD), Univul A plus (DHHB), Octocrylene (OCR), and Univul A plus (DHHB)+Octocrylene (OCR) were dissolved in Ethanol at 1 mM and were irradiated at 2000 and 4000 J/dm2 for 1 h and 2 h in a 24-well plate, respectively, in 2 replicates (1 replicate for HPLC and 1 replicate for absorbance spectra).
as §1, with “#4 (OHD),” for “#2 (OOD),”
(§2) Compound #5 (BOO), Tinosorb S (BEMT), and Octocrylene (OCR) were dissolved in Dubdis at 2 mM and were irradiated at 4000 J/dm2 for 2 h in a 24-well plate, respectively, in 2 replicates (1 replicate for HPLC and 1 replicate for absorbance spectra).

[2] = Photostability after UV irradiation, HPLC
Experimental: as §1
as §1, with “#4 (OHD),” for “#2 (OOD),”
as §2

[3] = UV absorbance profile: λmax in solvents, FLUOstar plate reader; details: 125 μM
Experimental: Compound #2 (OOD), Univul A plus (DHHB)+Octocrylene (OCR) were dissolved in a solvent at the same concentration (125 μM).
Compound #4 (OHD), Univul A plus (DHHB)+Octocrylene (OCR) were dissolved in a solvent at the same concentration (125 μM).
Compound #5 (BOO) and BEMT (6,6′-(6-(4-methoxyphenyl)-1,3,5-triazine-2,4-diyl)bis(3-((2-ethylhexyl)oxy)phenol)=Tinosorb S)+Octocrylene (OCR) were dissolved in a solvent at the same concentration (50 μM).
UV Absorbance Profil of Compound #6 (BOO-OM) Compound #6 (BOO-OM) and BEMT (6,6′-(6-(4-methoxyphenyl)-1,3,5-triazine-2,4-diyl)bis(3-((2-ethylhexyl)oxy)phenol)=Tinosorb S)+Octocrylene (OCR) were dissolved in a solvent at the same concentration (50 μM).

[4] = Solubility in sunscreen solvents; details: 50° C.
Experimental: Compound #2 (OOD) and a sunscreen solvent were weighed in a Becher. The Becher was placed on a magnetic stir plate, heated up to 50° C., and the solution was vigorously mixed with a bar magnet.
Compound #4 (OHD) and a sunscreen solvent were weighed in a Becher. The Becher was placed on a magnetic stir plate, heated up to 50° C., and the solution was vigorously mixed with a bar magnet.
Compound #5 (BOO) and a sunscreen solvent were weighed in a Becher. The Becher was placed on a magnetic stir plate, heated up to 50° C., and the solution was vigorously mixed with a bar magnet.
Compound #6 (BOO-OM) and a sunscreen solvent were weighed in a Becher. The Becher was placed on a magnetic stir plate, heated up to 50° C., and the solution was vigorously mixed with a bar magnet.

Row | Absorbance peak, Without UV irradiation, first or only peak ([1]; Dubdis, 2 mM) [nm] | Absorbance peak, Irradiation 4000 J/dm2, first or only peak ([1]; Dubdis, 2 mM, 2 h) [nm] | Absorbance peak, Without UV irradiation ([1]; Ethanol) [nm] | Absorbance peak, Irradiation 2000 J/dm2 ([1]; Ethanol) [nm] | Absorbance peak, Irradiation 4000 J/dm2 ([1]; Ethanol, 2 h) [nm] | degradation observed by HPLC after irradiation ([2]; Dubdis) | degradation observed by HPLC after irradiation ([2]; Ethanol) | Absorbance peak, Without UV irradiation, second peak ([1]; Dubdis, 2 mM) [nm] | Absorbance peak, Irradiation 4000 J/dm2, second peak ([1]; Dubdis, 2 mM, 2 h) [nm] | λmax ([3]; DMSO) [nm] | λmax ([3]; Ethanol) [nm] | λmax after irradiation ([1]; Ethanol, 2000 or 4000 J/dm2 for 1 or 2 hours) [nm] | Effect of irradiation on UV absorbance profile ([1]; Ethanol, UVB and UVA range, 2000 or 4000 J/dm2 for 1 or 2 hours) | purity by HPLC after irradiation ([2]; Ethanol) [%] | purity by HPLC, non-irradiated ([2]; Ethanol) [%] | soluble at ratio ([4]; Cetiol B (Dibutyl Adipate)) | soluble at ratio ([4]; Dimethyl capramide (Spectrasolv DMDA)) | Structure (SMILES)
1 | 305 | 309 | 304 | 304 | 304 | No degradation | No degradation | – | – | – | – | – | – | – | – | – | – | CCCCC(CC)COC(=O)C(C#N)=C(c1ccccc1)c1ccccc1 (stereo not shown) [OCR, 2-ethylhexyl 2 cyano-3,3-diphenylacrylate, reference compound]
2 | 310 | 310 | – | – | – | No degradation | – | 351 | 351 | – | – | – | – | – | – | – | – | CCCCC(CC)COc1ccc(-c2nc(-c3ccc(OC)cc3)nc(-c3ccc(OCC(CC)CCCC)cc3O)n2)c(O)c1 (stereo not shown) [BEMT, 6,6′-(6-(4-methoxyphenyl)-1,3,5-triazine-2,4-diyl)bis(3-((2-ethylhexyl)oxy)phenol), reference compound]
3 | – | – | 358 | 357 | 357 | – | No degradation | – | – | 356 | 356 | 357 | did not modify | 97.84 | 98.13 | ⅓ | 1/1 | CCN(CC)c1ccc(C(=O)c2ccccc2C(=O)NCCCCCCOC(=O)C(C#N)=C(c2ccccc2)c2ccccc2)c(O)c1 [Compound #4, 6-[[2-[4-(diethylamino)-2-hydroxy-benzoyl]benzoyl]amino]hexyl 2-cyano-3,3-diphenyl-prop-2-enoate]
4 | – | – | 357 | 357 | 357 | – | No degradation | – | – | – | – | – | – | – | – | – | – | CCCCCCOC(=O)c1ccccc1C(=O)c1ccc(N(CC)CC)cc1O [DHHB, diethylamino hydroxybenzoyl hexyl benzoate, reference compound]
